Test [1] has as its target T1, D(4) dopamine receptor (Homo sapiens, UniProt P21917).
T1 sequence (P21917 whole entry): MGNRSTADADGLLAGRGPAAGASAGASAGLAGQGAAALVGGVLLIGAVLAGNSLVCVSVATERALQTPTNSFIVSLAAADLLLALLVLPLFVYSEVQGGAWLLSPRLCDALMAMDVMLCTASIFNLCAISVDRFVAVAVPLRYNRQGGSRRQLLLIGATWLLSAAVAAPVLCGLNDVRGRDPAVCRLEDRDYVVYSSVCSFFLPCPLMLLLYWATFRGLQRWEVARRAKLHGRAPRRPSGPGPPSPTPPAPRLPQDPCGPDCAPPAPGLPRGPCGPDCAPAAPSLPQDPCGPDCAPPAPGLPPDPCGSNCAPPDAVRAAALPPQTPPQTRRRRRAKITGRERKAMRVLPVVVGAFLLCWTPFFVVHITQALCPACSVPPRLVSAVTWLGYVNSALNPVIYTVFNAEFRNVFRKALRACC
The experiment in a line: Cellular FLIPR (fluorometric imaging plate reader) assay.

For test [2], the target named is T1, D(4) dopamine receptor. The experiment in a line: Radioligand assay (DRD4.4).
Test [3] concerns the target D(1A) dopamine receptor (Homo sapiens) (UniProt P21728). Description: D1 CEREP ligand profiling. Particulars: Compound concentration 10.0 uM.
The target of test [4] is Mu-type opioid receptor (Homo sapiens) (UniProt P35372). The experiment in a line: mu CEREP ligand profiling. Particulars: Compound concentration 10.0 uM.
Test [5] concerns the target Type-2 angiotensin II receptor (Homo sapiens) (UniProt P50052). Conditions: Compound concentration 10.0 uM.
Description: AT2 CEREP ligand profiling
The target in test [6] is Muscarinic acetylcholine receptor M3 (Homo sapiens) (UniProt P20309). Particulars: Compound concentration 10.0 uM.
Description: M3 CEREP ligand profiling
The target of test [7] is Neuropeptide Y receptor type 2 (Homo sapiens) (UniProt P49146). Conditions: Compound concentration 10.0 uM.
Description: Y2 CEREP ligand profiling
The target in test [8] is Delta-type opioid receptor (Homo sapiens) (UniProt P41143). Conditions: Compound concentration 10.0 uM.
Description: delta CEREP ligand profiling
Test [9] concerns the target Prostacyclin receptor (Homo sapiens) (UniProt P43119). Conditions: Compound concentration 10.0 uM.
Description: PGI2 CEREP ligand profiling
Test [10] has as its target 5-hydroxytryptamine receptor 2C (Homo sapiens) (UniProt P28335). Particulars: Compound concentration 10.0 uM.
Description: 5-HT2C CEREP ligand profiling
Test [11] addresses GABA-A receptor; anion channel (Homo sapiens) (UniProt P14867+P47870+P18507+P28472+P48169+Q99928+Q9UN88+P34903+O00591+O14764+Q8N1C3+P18505+P78334+P47869+P31644+Q16445). Conditions: Compound concentration 10.0 uM.
Description: Cl- channel CEREP ligand profiling
The target of test [12] is Melatonin receptor type 1A (Homo sapiens) (UniProt P48039). The experiment in a line: ML1 CEREP ligand profiling. Particulars: Compound concentration 10.0 uM.

In ChEMBL document CHEMBL4507260 (2021) one finds IC50, Ki and inhibition data, which are given here for two compounds.

Activity calls are given as the source filed them. The calls are words filed in the database; no cut-off is given here.

Melatonin receptor type 1A (Homo sapiens), sequence (P48039 whole entry, looked up): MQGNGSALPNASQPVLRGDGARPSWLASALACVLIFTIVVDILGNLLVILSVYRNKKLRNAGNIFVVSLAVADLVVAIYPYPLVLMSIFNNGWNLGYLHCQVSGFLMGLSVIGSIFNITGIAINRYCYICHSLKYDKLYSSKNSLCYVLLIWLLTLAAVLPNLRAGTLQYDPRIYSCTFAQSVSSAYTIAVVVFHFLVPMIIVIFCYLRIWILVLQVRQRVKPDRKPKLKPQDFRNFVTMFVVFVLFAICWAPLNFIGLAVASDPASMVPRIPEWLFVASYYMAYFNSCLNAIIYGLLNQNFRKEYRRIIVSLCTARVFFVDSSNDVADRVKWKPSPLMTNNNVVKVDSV
D(1A) dopamine receptor (Homo sapiens), sequence (P21728 whole entry): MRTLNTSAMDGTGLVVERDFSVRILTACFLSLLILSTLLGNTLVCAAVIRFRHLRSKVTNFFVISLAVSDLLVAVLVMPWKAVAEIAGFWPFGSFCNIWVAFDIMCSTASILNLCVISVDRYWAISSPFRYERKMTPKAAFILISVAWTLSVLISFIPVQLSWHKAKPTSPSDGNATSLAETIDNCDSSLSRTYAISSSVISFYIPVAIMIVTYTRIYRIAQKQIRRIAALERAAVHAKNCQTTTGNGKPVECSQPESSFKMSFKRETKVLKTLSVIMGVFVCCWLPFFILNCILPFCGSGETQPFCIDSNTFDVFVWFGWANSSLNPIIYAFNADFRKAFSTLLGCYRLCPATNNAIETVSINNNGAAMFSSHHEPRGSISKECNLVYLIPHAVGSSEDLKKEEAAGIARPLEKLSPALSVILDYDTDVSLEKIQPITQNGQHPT
Mu-type opioid receptor (Homo sapiens), sequence (P35372 whole entry): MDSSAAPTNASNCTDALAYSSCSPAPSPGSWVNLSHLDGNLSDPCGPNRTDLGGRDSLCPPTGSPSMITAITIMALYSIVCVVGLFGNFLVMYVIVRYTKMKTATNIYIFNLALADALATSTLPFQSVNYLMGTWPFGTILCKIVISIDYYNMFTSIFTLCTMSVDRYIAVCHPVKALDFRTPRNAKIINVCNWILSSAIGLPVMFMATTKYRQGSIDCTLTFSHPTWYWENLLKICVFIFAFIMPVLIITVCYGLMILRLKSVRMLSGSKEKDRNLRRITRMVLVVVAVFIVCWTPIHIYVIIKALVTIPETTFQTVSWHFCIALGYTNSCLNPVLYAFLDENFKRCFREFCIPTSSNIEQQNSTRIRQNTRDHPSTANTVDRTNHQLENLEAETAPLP
Type-2 angiotensin II receptor (Homo sapiens), sequence (P50052 whole entry): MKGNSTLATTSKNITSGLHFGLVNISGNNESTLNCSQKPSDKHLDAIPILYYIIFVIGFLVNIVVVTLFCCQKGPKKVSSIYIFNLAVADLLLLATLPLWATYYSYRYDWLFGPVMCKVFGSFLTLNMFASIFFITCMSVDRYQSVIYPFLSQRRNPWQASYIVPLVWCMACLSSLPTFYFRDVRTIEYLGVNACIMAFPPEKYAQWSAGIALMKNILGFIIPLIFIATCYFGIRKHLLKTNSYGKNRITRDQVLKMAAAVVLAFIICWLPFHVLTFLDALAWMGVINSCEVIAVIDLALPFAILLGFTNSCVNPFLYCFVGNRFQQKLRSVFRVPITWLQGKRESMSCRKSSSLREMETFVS
Prostacyclin receptor (Homo sapiens), sequence (P43119 whole entry): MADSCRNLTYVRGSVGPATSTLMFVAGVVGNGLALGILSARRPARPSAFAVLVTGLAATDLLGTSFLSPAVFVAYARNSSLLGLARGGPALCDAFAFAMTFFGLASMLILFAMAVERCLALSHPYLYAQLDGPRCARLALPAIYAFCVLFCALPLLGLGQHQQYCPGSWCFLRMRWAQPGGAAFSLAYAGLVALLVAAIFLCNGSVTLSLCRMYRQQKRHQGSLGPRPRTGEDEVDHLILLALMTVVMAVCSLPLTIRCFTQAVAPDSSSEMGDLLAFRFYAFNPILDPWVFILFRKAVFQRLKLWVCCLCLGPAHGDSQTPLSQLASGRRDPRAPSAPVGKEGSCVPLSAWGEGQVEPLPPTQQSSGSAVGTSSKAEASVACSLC
5-hydroxytryptamine receptor 2C (Homo sapiens), sequence (P28335 whole entry): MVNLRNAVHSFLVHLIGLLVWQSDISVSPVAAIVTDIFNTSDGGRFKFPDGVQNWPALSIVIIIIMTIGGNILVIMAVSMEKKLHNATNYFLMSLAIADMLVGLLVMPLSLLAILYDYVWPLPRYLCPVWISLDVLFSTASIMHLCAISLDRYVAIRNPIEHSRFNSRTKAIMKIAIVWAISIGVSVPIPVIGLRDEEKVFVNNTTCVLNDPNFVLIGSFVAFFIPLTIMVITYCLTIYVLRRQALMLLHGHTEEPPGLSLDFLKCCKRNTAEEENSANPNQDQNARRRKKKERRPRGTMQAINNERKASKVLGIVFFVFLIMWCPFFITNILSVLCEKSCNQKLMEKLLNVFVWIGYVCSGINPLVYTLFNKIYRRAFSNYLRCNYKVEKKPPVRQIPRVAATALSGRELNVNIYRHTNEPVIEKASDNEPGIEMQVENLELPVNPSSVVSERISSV
Delta-type opioid receptor (Homo sapiens), sequence (P41143 whole entry): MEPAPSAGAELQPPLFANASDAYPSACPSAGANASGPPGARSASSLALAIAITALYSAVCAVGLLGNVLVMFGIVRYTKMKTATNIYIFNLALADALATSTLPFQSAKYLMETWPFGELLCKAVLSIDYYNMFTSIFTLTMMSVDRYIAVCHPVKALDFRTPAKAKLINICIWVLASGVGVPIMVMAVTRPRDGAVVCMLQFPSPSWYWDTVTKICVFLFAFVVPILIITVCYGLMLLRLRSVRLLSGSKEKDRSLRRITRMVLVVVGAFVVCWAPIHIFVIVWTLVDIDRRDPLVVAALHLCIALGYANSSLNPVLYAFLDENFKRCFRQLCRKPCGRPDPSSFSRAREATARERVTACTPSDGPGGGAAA
Muscarinic acetylcholine receptor M3 (Homo sapiens), sequence (P20309 whole entry, looked up): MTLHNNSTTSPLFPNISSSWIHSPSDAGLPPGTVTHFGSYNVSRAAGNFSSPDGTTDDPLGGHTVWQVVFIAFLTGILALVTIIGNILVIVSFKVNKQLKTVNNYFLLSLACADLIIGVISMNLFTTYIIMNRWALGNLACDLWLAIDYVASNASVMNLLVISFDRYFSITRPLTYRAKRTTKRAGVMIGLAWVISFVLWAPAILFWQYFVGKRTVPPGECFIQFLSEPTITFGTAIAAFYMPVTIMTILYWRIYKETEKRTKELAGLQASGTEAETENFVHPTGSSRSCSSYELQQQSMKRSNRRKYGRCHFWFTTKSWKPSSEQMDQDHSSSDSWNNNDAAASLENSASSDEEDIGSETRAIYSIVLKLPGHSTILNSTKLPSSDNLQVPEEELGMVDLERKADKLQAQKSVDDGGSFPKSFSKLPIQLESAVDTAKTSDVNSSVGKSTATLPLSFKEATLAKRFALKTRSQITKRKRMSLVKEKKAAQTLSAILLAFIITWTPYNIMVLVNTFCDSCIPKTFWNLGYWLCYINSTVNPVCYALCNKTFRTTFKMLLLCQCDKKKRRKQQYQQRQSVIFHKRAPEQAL
Neuropeptide Y receptor type 2 (Homo sapiens), sequence (P49146 whole entry): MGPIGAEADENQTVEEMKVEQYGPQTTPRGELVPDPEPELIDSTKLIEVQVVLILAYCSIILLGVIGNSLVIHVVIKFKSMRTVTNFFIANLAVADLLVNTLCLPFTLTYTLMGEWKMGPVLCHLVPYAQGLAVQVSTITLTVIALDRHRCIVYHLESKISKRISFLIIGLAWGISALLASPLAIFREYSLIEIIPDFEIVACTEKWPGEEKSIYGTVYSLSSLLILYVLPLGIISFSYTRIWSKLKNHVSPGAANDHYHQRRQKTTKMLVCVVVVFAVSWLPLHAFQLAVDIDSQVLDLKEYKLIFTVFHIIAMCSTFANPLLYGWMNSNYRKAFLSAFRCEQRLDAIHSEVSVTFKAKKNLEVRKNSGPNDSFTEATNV

On to `CSc1cccnc1N1CCN(Cc2nc3ccccc3[nH]2)CC1` [A-769], for which, at D(4) dopamine receptor [1], the IC50 – broadly, the point on the concentration scale where inhibition reaches its midpoint – was > 10 µM (not active).

As to `c1ccc(N2CCN(Cc3nc4ccccc4[nH]3)CC2)nc1` [ABT-724], the Ki (usually the equilibrium dissociation constant of an inhibitor or competing ligand from its target) at D(4) dopamine receptor [2] was 0.0636 µM (active). The inhibition – broadly, how much of the control response was suppressed – is 24% in test [3]; 51% in [4]; under 10% in test [5]; under 10% in test [6]; under 10% in test [7]; under 10% in [8]. The inhibition was under 10% in test [9], 10% in test [10], under 10% in [11] and 51% in test [12].
